Results as given in ChEMBL document CHEMBL3232888, “Optimization of anti-virulence PqsR antagonists regarding aqueous solubility and biological properties resulting in new insights in structure-activity relationships” (Eur J Med Chem, 2014).
In brackets after ≈: the same amount, converted by molar mass.

Tests used:
[1] = Aqueous solubility of the compound in 2% DMSO at pH 7.4 by HPLC analysis; assay type: physicochemical; conditions: aqueous medium with 2% DMSO
Pseudomonas aeruginosa [2] = assay: Antagonist activity at Pseudomonas aeruginosa PqsR expressed in Escherichia coli DH5alpha assessed as inhibition of PQS-induced transcriptional activity at 50 nM by beta-galactosidase reporter gene assay relative to PQS
Pseudomonas aeruginosa [3] = assay: Antagonist activity at Pseudomonas aeruginosa PqsR expressed in Escherichia coli DH5alpha assessed as inhibition of PQS-induced transcriptional activity at 5 uM by beta-galactosidase reporter gene assay relative to PQS
Pseudomonas aeruginosa [4] = assay: Agonist activity at Pseudomonas aeruginosa PqsR expressed in Escherichia coli DH5alpha assessed as induction of transcriptional activity at 10 uM by beta-galactosidase reporter gene assay relative to PQS
[5] = Antagonist activity at Pseudomonas aeruginosa PqsR expressed in Escherichia coli DH5alpha assessed as inhibition of PQS-induced transcriptional activity by beta-galactosidase reporter gene assay relative to PQS
Pseudomonas aeruginosa [6] = assay: Antivirulence activity in Pseudomonas aeruginosa PA14 assessed as reduction of extracellular level of PQS at 15 uM by UHPLC-MS/MS analysis relative to control; assay type: functional; set-up: scale not given: the % may be the effect or the level left
Pseudomonas aeruginosa [7] = assay: Antivirulence activity in Pseudomonas aeruginosa PA14 assessed as reduction of extracellular level of pyocyanin at 15 uM relative to control; assay type: functional; set-up: scale not given: the % may be the effect or the level left
Pseudomonas aeruginosa [8] = assay: Growth inhibition of Pseudomonas aeruginosa; assay type: organism-based; conditions: in vivo
Pseudomonas aeruginosa [9] = assay: Agonist activity at Pseudomonas aeruginosa PqsR expressed in Escherichia coli DH5alpha assessed as induction of transcriptional activity at 5 uM by beta-galactosidase reporter gene assay relative to PQS
Pseudomonas aeruginosa [10] = assay: Agonist activity at Pseudomonas aeruginosa PqsR expressed in Escherichia coli DH5alpha assessed as induction of transcriptional activity at 1 uM by beta-galactosidase reporter gene assay relative to PQS
Pseudomonas aeruginosa [11] = assay: Antivirulence activity in Pseudomonas aeruginosa PA14 assessed as reduction of extracellular level of PQS at 100 uM by UHPLC-MS/MS analysis relative to control; assay type: functional; set-up: scale not given: the % may be the effect or the level left
Pseudomonas aeruginosa [12] = assay: Antivirulence activity in Pseudomonas aeruginosa PA14 assessed as reduction of extracellular level of pyocyanin at 100 uM relative to control; assay type: functional; set-up: scale not given: the % may be the effect or the level left
Pseudomonas aeruginosa [13] = assay: Antivirulence activity in Pseudomonas aeruginosa PA14 assessed as reduction of extracellular level of pyocyanin; assay type: functional
[14] = Metal chelating activity of the compound assessed as CAS iron-chelation after 15 mins; assay type: physicochemical; conditions: 0.25 h
Pseudomonas aeruginosa [15] = assay: Antivirulence activity in Pseudomonas aeruginosa PA14 assessed as reduction of extracellular level of PQS at 250 uM by UHPLC-MS/MS analysis relative to control; assay type: functional; set-up: scale not given: the % may be the effect or the level left
Pseudomonas aeruginosa [16] = assay: Antivirulence activity in Pseudomonas aeruginosa PA14 assessed as reduction of extracellular level of pyocyanin at 250 uM relative to control; assay type: functional; set-up: scale not given: the % may be the effect or the level left

| SMILES | solubility [1] | inhibition (Pseudomonas aeruginosa [2]) | inhibition (Pseudomonas aeruginosa [3]) | Activity (Pseudomonas aeruginosa [9]) | further results |
| --- | --- | --- | --- | --- | --- |
| CCCCCCCc1cc(=O)c2cc([N+](=O)[O-])ccc2[nH]1 | < 5 µM | 73% | 100% |  | Activity (Pseudomonas aeruginosa [4]): 0%; IC50 [5]: 0.051 µM; Activity (Pseudomonas aeruginosa [6]): 14%; Activity (Pseudomonas aeruginosa [7]): 44%; Activity (Pseudomonas aeruginosa [8]): Non-toxic |
| CCCCCCCc1cc(=O)c2cnccc2[nH]1 | 50 µM (≈ 12.2 µg/mL) | 8% | 2% | 0.82% |  |
| CCCCCOCc1[nH]c2ccc([N+](=O)[O-])cc2c(=O)c1C(=O)O | 50 µM (≈ 16.7 µg/mL) | 7% | 6% | 0.48% |  |
| CCCCCCCc1[nH]c2ccccc2c(=O)c1C(=O)NO | > 200 µM | 15% | 29% | 0.83% |  |
| CCCCCOCc1cc(=O)c2ccccc2[nH]1 | > 200 µM | 11% | 6% | 0.89% |  |
| CCCCCCCc1cc(=O)c2ccccc2[nH]1 |  |  |  |  | Activity (Pseudomonas aeruginosa [10]): 0.75% |
| CCCCCCCc1[nH]c2ccccc2c(=O)c1[N+](=O)[O-] | < 5 µM | 14% | 17% | 0.84% |  |
| CCOCCCCc1cc(=O)c2cc([N+](=O)[O-])ccc2[nH]1 | 50 µM (≈ 14.5 µg/mL) | 6% | 72% | 0.13% | IC50 [5]: 3.51 µM; Activity (Pseudomonas aeruginosa [11]): 13%; Activity (Pseudomonas aeruginosa [12]): 23%; Activity (Pseudomonas aeruginosa [8]): Non-toxic |
| CCCCCCCc1[nH]c2ccc([N+](=O)[O-])cc2c(=O)c1C(N)=O | 15 µM (≈ 4.97 µg/mL) | 60% | 100% | 0% | IC50 [5]: 0.035 µM; Activity (Pseudomonas aeruginosa [6]): 37%; Activity (Pseudomonas aeruginosa [7]): 81%; IC50 (Pseudomonas aeruginosa [13]): 2 µM; Activity [14]: Not Active; Activity (Pseudomonas aeruginosa [8]): Non-toxic |
| CCCCCOCc1[nH]c2ccc([N+](=O)[O-])cc2c(=O)c1C(=O)OCC | 15 µM (≈ 5.44 µg/mL) | 2% | 13% | 0% |  |
| CCCCCCCc1[nH]c2ccccc2c(=O)c1CO | 50 µM (≈ 13.7 µg/mL) | 5% | 28% | 0.49% |  |
| CCCCCOCc1cc(=O)c2cc([N+](=O)[O-])ccc2[nH]1 | 15 µM (≈ 4.35 µg/mL) | 49% | 100% | 0% | IC50 [5]: 0.253 µM; Activity (Pseudomonas aeruginosa [6]): 23%; Activity (Pseudomonas aeruginosa [7]): 27%; Activity (Pseudomonas aeruginosa [8]): Non-toxic |
| CCCCCCCc1[nH]c2ccc([N+](=O)[O-])cc2c(=O)c1C(=O)OCC | 5 µM (≈ 1.8 µg/mL) | -8% | 20% | 0% |  |
| CCCCCCCc1[nH]c2ccccc2c(=O)c1C(N)=O | 5 µM (≈ 1.43 µg/mL) | 8% | 27% | 0.65% |  |
| CCOCCCCc1cc(=O)c2cc(C(F)(F)F)ccc2[nH]1 | > 200 µM | 8% | 69% | 0.02% | IC50 [5]: 1.71 µM; Activity (Pseudomonas aeruginosa [15]): 8.6%; Activity (Pseudomonas aeruginosa [16]): 39%; Activity (Pseudomonas aeruginosa [8]): Non-toxic |
| CCCCCCCc1cc(O)c2ccccc2n1 | 15 µM (≈ 3.65 µg/mL) |  |  |  |  |

| SMILES | solubility [1] | inhibition (Pseudomonas aeruginosa [2]) | inhibition (Pseudomonas aeruginosa [3]) | Activity (Pseudomonas aeruginosa [9]) | further results |
| --- | --- | --- | --- | --- | --- |
| CCCCCCCc1[nH]c2ccncc2c(=O)c1C(=O)O | 50 µM (≈ 14.4 µg/mL) | 6% | 20% | 0.66% |  |
| CCCCCCCc1cc(=O)c2cc(C(F)(F)F)ccc2n1C | 5 µM (≈ 1.63 µg/mL) | 31% | 100% | 0% | IC50 [5]: 0.27 µM; Activity (Pseudomonas aeruginosa [6]): 8.9%; Activity (Pseudomonas aeruginosa [7]): 58%; Activity (Pseudomonas aeruginosa [8]): Non-toxic |
| CCOCCCCc1[nH]c2ccc([N+](=O)[O-])cc2c(=O)c1C(=O)O | 50 µM (≈ 16.7 µg/mL) | 1% | 33% | 0.42% |  |
| CCCCCCCc1cc(OC)c2ccccc2n1 | 5 µM (≈ 1.29 µg/mL) | -23% | -6% | 0.03% |  |
| CCOCCCCc1[nH]c2ccc([N+](=O)[O-])cc2c(=O)c1C(=O)OCC | 5 µM (≈ 1.81 µg/mL) | 2% | 27% | 0.09% |  |
| CCCCCOCc1cc(=O)c2cc(C(F)(F)F)ccc2[nH]1 | 15 µM (≈ 4.7 µg/mL) | 29% | 100% | 0% | IC50 [5]: 0.172 µM; Activity (Pseudomonas aeruginosa [6]): 21%; Activity (Pseudomonas aeruginosa [7]): 29%; Activity (Pseudomonas aeruginosa [8]): Non-toxic |
| CCCCCCCc1[nH]c2ccc([N+](=O)[O-])cc2c(=O)c1CO | 5 µM (≈ 1.59 µg/mL) | 45% | 100% | 0% | IC50 [5]: 0.072 µM; Activity (Pseudomonas aeruginosa [6]): 33%; Activity (Pseudomonas aeruginosa [7]): 83%; IC50 (Pseudomonas aeruginosa [13]): 3.8 µM; Activity [14]: Not Active; Activity (Pseudomonas aeruginosa [8]): Non-toxic |
| CCOCCCCc1cc(=O)c2ccccc2[nH]1 | > 200 µM | 54% | 42% | 0.31% |  |
| CCCCCCCc1[nH]c2ccccc2c(=O)c1C(=O)O | 15 µM (≈ 4.31 µg/mL) | 12% | 41% | 0.73% |  |
| CCCCCCc1cc(=O)c2cc(C(F)(F)F)ccc2n1C | 15 µM (≈ 4.67 µg/mL) | 45% | 100% | 0% | IC50 [5]: 0.229 µM; Activity (Pseudomonas aeruginosa [8]): Non-toxic |
| CCCCCCCc1[nH]c2ccc([N+](=O)[O-])cc2c(=O)c1C(=O)NO | > 200 µM | 30% | 78% | 0.3% |  |
| CCCCCCCc1[nH]c2ccc([N+](=O)[O-])cc2c(=O)c1C(=O)O | 15 µM (≈ 4.99 µg/mL) | 11% | 34% | 0.78% |  |
| CCCCCCCc1[nH]c2ccccc2c(=O)c1N | 50 µM (≈ 12.9 µg/mL) | -4% | -7% | 1.22% |  |
| CCCCCCCc1[nH]c2ccc([N+](=O)[O-])cc2c(=O)c1O | < 5 µM | -31% | -29% | 1.25% |  |
| CCCCCCCc1[nH]c2ccccc2c(=O)c1C(=O)OCC | 5 µM (≈ 1.58 µg/mL) | 18% | 32% | 0% |  |
| CCCCCCCc1[nH]c2ccncc2c(=O)c1C(=O)OCC | 50 µM (≈ 15.8 µg/mL) | 24% | 76% | 0.02% |  |
